Experimental data from patent US7091220B2, “Substituted indole Mannich bases” (Gruenenthal GmbH, priority 1999, dated 2006).
Read-outs that look alike come from different tables or passages of the source.

What was measured:
[1] = test system: phenylquinone-induced writhing in mice; experiment: Analgesia test: phenylquinone-induced writhing in mice; format: in vivo; conditions: male NMRI mice; standard dose 10 mg/kg intravenous, 10 minutes before phenylquinone intraperitoneally; counted 5–20 minutes
Description: The in-depth investigation of the compounds according to the invention for their analgesic activity was carried out in the phenylquinone-induced writhing in mice (modified by I. C. Hendershot, J. Forsaith, J. Pharmacol. Exp. Ther. 125, 237–240 (1959)). Male NMRI mice weighing 25–30 g were used for this. Groups of 10 animals per substance dose received 0.3 ml/mouse of a 0.02% aqueous solution of phenylquinone (phenylbenzoquinone, Sigma, Deisenhofen; preparation of the solution with the addition of 5% ethanol and storage in a water bath at 45° C.) administered intraperitoneally 10 minutes after intravenous administration of the test substances. The animals were placed individually in observation cages. The number of pain-induced stretching movements (so-called writhing reactions=straightening of the body with stretching of the hind extremities) were counted by means of a push-button counter for 5–20 minutes after the administration of phenylquinone. Animals which received only physiological saline solution were also run as a control.
The substances were tested in the standard dose of 10 mg/kg. The inhibition of the writhing reactions by a substance was calculated according to the following equation: […]
The in-depth investigation of the compounds according to the invention for their analgesic activity was carried out in the phenylquinone-induced writhing in mice as described above.

[2] = test system: α2-subtype of the human α-adrenergic receptor; experiment: SPA test, affinity for the α2-subtype of the human α-adrenergic receptor; format: binding
Description: Wide-ranging testing of the indole Mannich bases according to the invention for their activity was carried out by the conventional high throughput screening methods, such as are described in John P. Devlin, High Throughput Screening, 1997, Marcel Dekker Inc. They are introduced here as a reference and are therefore part of the disclosure.
The action of the indole Mannich bases according to the invention is determined in particular by the affinity for the N-methyl-D-aspartate (NMDA) receptor family, for (α-adrenergic receptors and opioid receptors.
The compounds of the general formula 1 according to the invention investigated are suitable as ligands for the α2-subtype of the human α-adrenergic receptor, which is of importance for pain sensation.
The affinity of the compounds according to the invention for this α2-subtype of the α-adrenergic receptor has been determined with the aid of the SPA test such as is described in John P. Devlin, High Throughput Screening, Marcel Dekker Inc. 1997, pages 307 to 316. This literature is introduced herewith as a reference and is therefore part of the disclosure. The affinities of the compounds according to the invention were in each case determined at a concentration of 10 μM.

| SMILES | Inhibition of the writhing reaction in % [1] [%] | further results |
| --- | --- | --- |
| Cn1cc(C(c2ccccc2)N2CCCCC2)c2ccccc21 (centres unmarked) [Example 48, 1-Methyl-3-(phenylpiperidin-1-yl-methyl)-1H-indole] | 6 |  |
| CN(C)C(c1ccccc1)c1c[nH]c2ccccc12 (centres unmarked) [Example 46, [(1H-Indol-3-yl)-phenylmethyl]-dimethylamine] | 41 |  |
| CN(C)C(c1ccccc1)c1cn(C)c2ccccc12 (centres unmarked) [Example 22, Dimethyl-[(1-methyl-1H-indol-3-yl)-phenylmethyl]-amine] | 39 |  |
| c1ccc(C(c2c[nH]c3ccccc23)N2CCCC2)cc1 (centres unmarked) [Example 47, 3-(Phenylpyrrolidin-1-yl-methyl)-1H-indole] | 57 |  |
| Cn1cc(C(c2ccccc2)N2CCOCC2)c2ccccc21 (centres unmarked) [Example 23, 1-Methyl-3-(morpholin-4-yl-phenylmethyl)-1H-indole] | 75 |  |
| c1ccc(C(c2c[nH]c3ccccc23)N2CCCCC2)cc1 (centres unmarked) [Example 49, 3-(Phenylpiperidin-1-yl-methyl)-1H-indole] | 82 |  |
| CN(C)C(c1c(F)cccc1Cl)c1cn(C)c2ccccc12 (centres unmarked) [Example 68, [(2-Chloro-6-fluoro-phenyl)-(1-methyl-1H-indol-3-yl)-methyl]-dimethyl-amine] |  | % Inhibition of α2 (humans), 10 μM ([2]; 10 µM): 88% |
| CN(C)C(c1c(F)cccc1Cl)c1c[nH]c2cccc([N+](=O)[O-])c12 (centres unmarked) [Example 55, [(2-Chloro-6-fluoro-phenyl)-(4-nitro-1H-indol-3-yl)-methyl]-dimethyl-amine] |  | % Inhibition of α2 (humans), 10 μM [2]: 49% |
